Here are results for 1 compound from PMC10300155, “Inhibition of TRPV4 remodels single cell polarity and suppresses the metastasis of hepatocellular carcinoma” (Cell Death & Disease, 2023).

Usually Kd stands for the equilibrium constant for the complex coming apart. Lower therefore signals a tighter complex.

For assay [1], the target named is T1, TRPV4 (purified, fluorescently labeled) (Homo sapiens, UniProt Q9HBA0).
T1 construct: purified protein, fluorescently labeled for MST
Kind of assay: microscale thermophoresis (Monolith NT.[…]). It is filed as binding.

Assay [2] addresses T2, TRPV4 (native, MHCC-97H cells) (Homo sapiens, UniProt Q9HBA0).
T2 construct: endogenous channel in human hepatocellular carcinoma MHCC-97H cells
Kind of assay: Fluo-4 AM calcium influx, flow cytometry. The settings on record: inhibitor; 0.5 h pre-treatment; agonist GSK1016790A; adherent MHCC-97H cells. It counts as cell-based. In general terms: Flow cytometry measures light scatter and fluorescence of single cells or particles in a stream.

T1 sequence (Q9HBA0 whole entry): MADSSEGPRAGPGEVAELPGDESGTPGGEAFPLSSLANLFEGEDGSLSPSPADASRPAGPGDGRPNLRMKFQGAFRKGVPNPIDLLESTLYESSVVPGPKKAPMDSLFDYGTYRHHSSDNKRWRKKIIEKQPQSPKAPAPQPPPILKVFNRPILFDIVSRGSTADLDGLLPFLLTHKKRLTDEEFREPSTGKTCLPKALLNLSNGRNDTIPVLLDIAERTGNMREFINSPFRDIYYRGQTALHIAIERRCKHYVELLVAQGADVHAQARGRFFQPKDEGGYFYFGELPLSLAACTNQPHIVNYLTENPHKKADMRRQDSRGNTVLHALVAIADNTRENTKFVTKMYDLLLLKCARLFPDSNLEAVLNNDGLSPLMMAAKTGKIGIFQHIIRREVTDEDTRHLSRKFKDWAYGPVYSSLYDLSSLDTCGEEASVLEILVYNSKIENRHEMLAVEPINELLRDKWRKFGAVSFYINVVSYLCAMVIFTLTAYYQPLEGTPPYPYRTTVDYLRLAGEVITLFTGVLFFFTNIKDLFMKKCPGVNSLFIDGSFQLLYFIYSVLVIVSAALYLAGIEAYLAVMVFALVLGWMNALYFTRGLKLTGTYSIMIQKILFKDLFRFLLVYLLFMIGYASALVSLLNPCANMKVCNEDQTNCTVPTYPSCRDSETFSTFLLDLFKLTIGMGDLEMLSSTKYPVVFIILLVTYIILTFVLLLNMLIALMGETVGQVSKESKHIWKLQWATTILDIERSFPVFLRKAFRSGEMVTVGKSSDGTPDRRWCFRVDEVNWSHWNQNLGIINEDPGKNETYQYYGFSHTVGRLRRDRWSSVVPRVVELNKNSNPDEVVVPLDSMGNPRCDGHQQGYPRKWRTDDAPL
T2 sequence (Q9HBA0 whole entry): as above

The compound `COc1c(OCCCCN2CCCC2)cc(O)c2c(=O)cc(-c3ccccc3)oc12` [GL-V9, 5-hydroxy-8-methoxy-2-phenyl-7-(4-(pyrro-lidin-1-yl)butoxy)4H-chromen-4-one] returned a Kd in assay [1] of 106 nM. The “Fluo-4 AM calcium influx, flow cytometry” value in assay [2] is recorded as “substantially reduced the calcium influx brought on by GSK1016790A”.
